# From US5298502A, “Method and composition for photodynamic treatment and detection of tumors” (priority 1991, dated 1994)
# Experiments:
# mosquito larvae = assay: Insecticidal test against mosquito larvae; conditions: in vivo
# cabbage loopers = assay: Insecticidal test against cabbage loopers; conditions: in vivo
# murine leukemia cells = conditions: cited from earlier work
# human erythrocytes = conditions: introduced into human erythrocytes; cited from earlier work
# tumors = conditions: injected into animals; cited from earlier work
# [1] = system: cotyledons harvested from etiolated cucumber seedlings; assay: Percent Efflux test (Efflux Experiment); type: tissue-based, Cucumis sativus L.; conditions: 100 nM concentration
# Experimental: The enzyme-inhibiting agent is preferably one which has a high capacity for disrupting the plasmalemma of plant material. One test for that capacity is the Efflux Experiment described in the article by Halling and Peters in Plant Physiology, 84, 1114-5 (1987).
# The Percent Efflux test employs cotyledons harvested from etiolated cucumber seedlings. In an initial step a mass of cotyledons is treated in the dark with an aqueous buffered solution containing a radiolabelled sugar. The amount of the sugar taken up by the cotyledons is then measured (by counting, as described below). […] The cotyledons, in contact with the aqueous solutions, are then exposed to light for 16 hours, and then separated from the aqueous solutions; the latter are then measured (by counting) to determine their contents of radiolabelled material. The results are expressed as Percent Efflux Which is calculated as follows, where S is the count of radiolabelled material (per cotyledon) taken up by the cotyledons in their initial treatment, ST is the count of radiolabelled material (per cotyledon) in the aqueous solution containing the compound to be tested, after the exposure to light and Sc is the count of radiolabelled material (per cotyledon) in the aqueous solution of the control, after exposure to light: [formula] […]
# HeLa cells [2] = assay: Tetrapyrrole accumulation in treated HeLa cells (Example 1); type: cell-based, human; conditions: 100 μM agent, 3 days in the dark
# Experimental: HeLa cells (a human tumor cell line commonly employed for tumor research and obtained from the American Type Culture Collection), in logarithmic growth phase (having been cultured at 37° C. for five days in one-liter Falcon tissue culture flasks), were washed in phosphate buffered saline (PBS). A 0.25% solution of trypsin in PBS (2 mL) was added, and, after several minutes, the cells were gently removed from the flask and placed into 110 mL of a 25 mM solution of Hepes in Minimum Essential Medium (MEM) supplemented with 10% v/v inactivated calf serum, 1.1 mL of a 200 mM solution of glutamine in 0.85% saline solution, and 11,000 units of penicillin/11,000 mcg streptomycin.
# Then, 5.0 mL aliquots of the resulting resuspended cell culture were each placed into a 50 mL Falcon tissue culture flask and (except for the control) mixed with the treating agent. The aliquots were then incubated in the dark at 37° C. for three days. The cells were then removed and extracted under green light in the following manner:
# Cells were removed from the bottom of the flask with the addition of 0.8 mL of a 0.25% solution of trypsin in PBS. After 1 hour of incubation in the dark, cells and medium were removed from the flasks, placed into round bottom centrifuge tubes, and then subjected to two rounds of freeze-thaw conditions to disrupt the cells and allow for extraction.
# Ten mL of basic acetone (90% acetone:10% of 0.1 N NH4 OH) was then added to each tube, and the tubes were centrifuged to remove protein and cell debris. Five mL of water was added to the supernatant, followed by 0.5 mL of a saturated aqueous solution of NaCl. The pH was then adjusted to 6.8 by the dropwise addition of 2 M KH2 PO4. The aqueous acetone extract was then loaded onto a C8 Baker Prep column. The columns were dried and then washed with 2 mL of water. The tetrapyrroles were eluted with 2×1.5 mL volumes of 90/10 CH3 OH/H2 O. Extracts were then quantified on a spectrofluorometer.
# Agent A was supplied as a filter-sterilized 250 mM solution in water, pH 6.5. Agents B, C, D, and E were supplied as 50 mM solutions in acetone. Acetone was also added to the control to provide a concentration of 0.2% v/v therein. The amounts of the agents added to the cell cultures were such as to give the concentrations specified in the Table 1 below. The amounts of the tetrapyrrole protoporphyrin IX ("Proto IX") produced are shown in that Table.
# [3] = system: enzymatic conversion of Proto IX to magnesium Proto IX; assay: Conversion of Proto IX to magnesium Proto IX in chloroplast suspension; type: biochemical, Cucumber (Cucumis sativus L.); conditions: 10 μm AFM, in the presence of ATP
# [4] = target: Protoporphyrinogen Oxidase; assay: Protoporphyrinogen oxidase assay using isolated enzyme; type: biochemical, Peas (Pisum sativum var. Little Marvel); conditions: isolated pea etioplast enzyme
# Experimental: Plant Material and Homogenization: Peas (Pisum sativum var. Little Marvel) germinated at 20° C. in a dark growth chamber ten days. Plants were illuminated for one hour per day, which allowed for significant leaf expansion while minimizing chlorophyll synthesis. Leaves were pale yellow-green in color.
# The leaves were then homogenized in 500 mL of grinding media consisting of 0.5 M mannitol, 10 mM HEPES, 20 mM TES, 1 mM EDTA, 1 mM MgCl2, 5 mM cysteine, and 0.2 BSA, pH 7.7. The brei was then passed through four layers of cheesecloth, then through a 43-micron nylon mesh. The hemogenate was then centrifuged at 4000 g for 3 minutes. The resultant pellet was utilized for plastid isolation.
# Etioplast Isolation and Purification: The pellet (plastid fraction) was resuspended in 40 mL of assay media (grinding media minus cysteine and containing 1 mM DTE and 1% ESA) and centrifuged at 150 g to remove cellular debris. The resultant supernatant was centrifuged at 4000 g, and the resuspended pellets were overlaid on 40% Percoll. […]
# Protein content was determined utilizing the BioRad method. […]
# Purification Utilizing DEAE Chromatography: A 0.75 mL volume of plastid-solubilized-enzyme preparation was loaded onto a Waters Protein-Pak DEAE-5PW column (8 mm×7.5 cm) equilibrated with Elution Buffer. […] Peaks were detected using a Waters 494 UV detector at 260 nm, sensitivity:1AU. […]
# HeLa cells [5] = assay: Growth inhibition and Proto IX accumulation in HeLa cells (Example 2); type: cell-based, human; conditions: 100 μM agent
# Experimental: HeLa cells, in logarithmic growth phase having been cultured for 6 days in six one-liter Falcon tissue culture flasks at 37° C.), were washed in phosphate buffered saline (PBS). A 0.25% solution of trypsin in PBS was added, and, after several minutes, the cells were gently removed and placed into 110 mL of a 25 mM solution of Hepes in Minimum Essential Medium (MEM), supplemented with 10% v/v inactivated calf serum, 1.1 mL of a 200 mM solution of glutamine in 0.85% saline solution, and 11,000 units of penicillin/11,000 mcg streptomycin.
# Aliquots (5.0 mL each) of the resuspended cell culture were placed into 50 mL Falcon tissue culture flasks, with or without herbicide, and incubated in the dark at 37° C. for 4 days, the herbicide being added in dilute acetone solution as in Example 1. Acetone was also added to the controls to provide a concentration of acetone of 0.2% v/v therein. The amount of herbicide was such as to provide the concentrations specified in Table 2 below.
# Extraction: The media from each of the flasks were placed in glass round bottom tubes, while the cells adhering to the bottom of the flasks were loosened by the addition of 0.5 mL of a 0.25% solution of trypsin in PBS, and after several minutes at 37° C., then washed from the flasks and recombined with their media. Aliquots of 100 μL were then removed from each cell suspension to determine cell density. The remaining 5.4 mL of cell suspension was then sonified for 30 minutes to disrupt the cells.
# Ten mL of basic acetone (90% acetone:10% 0.1 N NH4 OH) was then added to each tube, and the tubes were centrifuged to remove protein and cell debris. Five mL of water was added to the supernatant, followed by 0.5 mL of a saturated aqueous solution of NaCl. The pH was then adjusted to 6.8 by the dropwise addition of 2 M KH2 PO4. The aqueous acetone extract was then loaded onto a C8 Baker Prep column. The columns were dried and then washed with 2 mL of water. The tetrapyrroles were eluted with 3 mL of 90/10 CH3 OH/H2 O. As in Example 1, all these extraction procedures were carried out substantially entirely under non-protoporphrin IX-exciting light (e.g. green light) or in the dark (e.g. in opaque covered containers). The fluorescence of the extracts was then determined on a SPEX spectrofluorometer. Protoporphyrin IX ("Proto IX") accumulation was quantified utilizing predetermined extinction coefficients.
compound,measurement,setting,value
C#CCOc1cc(-n2nc(C)n(C(F)F)c2=O)c(F)cc1Cl [Agent 7f],activity against mosquito larvae,mosquito larvae,active
same,activity against cabbage loopers,cabbage loopers,active
C=CC1=C(C)c2cc3[nH]c(cc4nc(cc5[nH]c(cc1n2)c(C)c5CCC(=O)O)C(CCC(=O)O)=C4C)c(C)c3C=C [protoporphyrin],photosensitizing potency,murine leukemia cells,most potent photosensitizing agent of those tested
same,photosensitizing effect,human erythrocytes,marked photosensitizing effect
same,protoporphyrin in the tumors after injection,tumors,no detectable protoporphyrin in the tumors
"C#CCOc1cc(-n2nc(C)n(C(F)F)c2=O)c(F)cc1Cl [1-(4-chloro-2-fluoro-5-propargyloxyphenyl) -3-methyl-4-difluoromethyl-Δ^2-1,2,4-triazolin-5-one]",total efflux,[1],over 90%
"COC(=O)c1cc(Oc2ccc(C(F)(F)F)cc2Cl)ccc1[N+](=O)[O-] [Agent B, Acifluorfen-methyl]",Amount of Proto IX,HeLa cells [2],1.3 pmol
same,Fluorescence Emission cps 400/630,HeLa cells [2],12921 cps
same,activity against mosquito larvae,mosquito larvae,active
same,effect on enzymatic conversion of Proto IX to magnesium Proto IX,[3],no inhibiting effect
same,pI50 (negative log of the I50 Molarity),[4],7.1
same,IC50,[4]; read-out: I50,80 nM
same,Amount of Proto IX,HeLa cells [5]; average amount per 10^6 cells,5.20 pmol
same,inhibition at 100 µM,"HeLa cells [5]; Homo sapiens, HeLa, 96 h, 4 days in the dark",99%
same,activity against cabbage loopers,cabbage loopers,active
"CCOC(=O)C(C)OC(=O)c1cc(Oc2ccc(C(F)(F)F)cc2Cl)ccc1[N+](=O)[O-] (stereo not shown) [lactophen, 1-(carboethoxy)ethyl 5-(2-chloro-4-trifluoromethylphenoxy) -2-nitrobenzoate, reference compound]",total efflux,[1],over 90%
